{
  "source": "paper PMC13294250",
  "about": "“An effort to enhance the clinical translatability of caprate-based tablet formulations in gastric peptide delivery” (Drug Delivery and Translational Research, 2025)",
  "key": {"[1]": {"test": "CAC and CMC determinations by dynamic light scattering", "type": "physicochemical", "settings": "DLS at 25 °C", "method": "Stock solutions of sodium caprate were made in the individual buffers. 10–100 mM phosphate buffer was used for most sample series, while 50 mM sodium borate was used for pH 9 [31]. In the case of meglumine a 20 mM Tris buffer pH 8.5 was used. Samples were prepared with and without 20 mg/ml meglumine. All samples were pH adjusted and filtered through 0.22 μm (Millipore 6830-0021). Dynamic light scattering (DLS) data was acquired at 25 °C by adding 20–25 µL of each sample in triplicates to a 384 well plate Corning® 3540 (Corning, NY, USA). The plate was centrifuged for 5 min at 1200 rpm before analysis to remove any air bubbles from the wells. […] A DynaPro™ Plate Reader and Dynamics™ software version 7 (Wyatt Technology Corp., Santa Barbara, CA, USA) was used to collect and analyze the data."}, "[2]": {"settings": "cited from earlier work", "from_the_text": "Given the negative impact of low gastric pH on both in vitro and in vivo performance of C10-based tablets, the use of a pH modifier was investigated to mitigate the acidity of the human stomach. Since C10 is an ionizable compound known to form different colloidal structures dependant on pH, selection of an appropriate pH modifier is paramount. The resulting pH should enable fast disintegration and dissolution of the formulation, whilst securing that the colloidal species formed facilitate the permeation enhancing effect needed for absorption of the macromolecule. Monomeric C10 is presumed to b ..."}, "[3]": {"settings": "sodium carbonate as pH modifier candidate in C10 tablets, oral", "description": "On top of elevating the pH, the pH-modifying excipient needs to ensure manufacturability of tablets while being compatible with the API in the formulation. An array of alkaline agents capable of increasing the pH were screened (Figure S2) by addition of the pH modifier in 20 mL of acidic media (0.1 M HCl) with 0.1 M KCl, and 10 mg/mL of C10 at 37 °C, which is close to the physiological condition of experimental animals when C10 tablet formulation is dosed. The volume and concentration of HCl and KCl were selected to replicate the gastric in vivo conditions, whereas C10 was added to mimic the intrinsic buffer capacity of the PE present in the tablet."}, "[4]": {"test": "Screening of the meglumine amount in acidic medium containing C10", "type": "physicochemical", "settings": "37 °C, pH meter", "method": "In addition, it is an approved pharmaceutical excipient marketed in several oral dosage forms such as telmisartan, repaglinide and rosuvastatine tablets. To identify the most suitable meglumine amount for C10-based tablets, a systematic screening was conducted in 20 mL acidic medium (KCl 0.1 M/ HCl 0.025 M, 10 mL + 10 mL of MQ water) reflecting the composition of dog gastric fluid after dosing of water. The medium contained either 50, 100, 200, or 300 mg of C10 to account for different enhancer amounts, and the evolution of pH against added meglumine amount was monitored (Table 1). Since a final pH above 8.5 around the tablet in the stomach is desirable for C10 dissolution and to achieve the single-phased micellar system with high monomeric C10 availability, the corresponding meglumine amount needed to reach pH 8.5 was set as the lower limit for formulation development.\nA stock solution of KCl 0.1 M/ HCl 0.025 M, pH = 1.6 was prepared. 10mL of this solution was added to 10 mL of MQ water in tubes containing either 50, 100, 200, or 300 mg of C10 granules. Each solution was gently stirred at 37 °C. Meglumine was added in amounts beyond the calculated neutralization point. pH was recorded using a pH meter PHM 200 (Mettler Toledo). Turbidity/clarity was visually assessed for records."}, "[5]": {"settings": "no reference given; cited from earlier work", "from_the_text": "Meglumine was selected due to its capability to both raise the pH to the desired level and produce tablets with the required quality. […] In addition, it is an approved pharmaceutical excipient marketed in several oral dosage forms such as telmisartan, repaglinide and rosuvastatine tablets. To identify the most suitable meglumine amount for C10-based tablets, a systematic screening ..."}, "[6]": {"settings": "50 mg C10 / 20 mL acidic medium (10 mL KCl 0.1 M/HCl 0.025 M pH 1.6 + 10 mL MQ water)"}, "[7]": {"settings": "200 mg C10 / 20 mL acidic medium (10 mL KCl 0.1 M/HCl 0.025 M pH 1.6 + 10 mL MQ water)"}, "[8]": {"settings": "300 mg C10 / 20 mL acidic medium (10 mL KCl 0.1 M/HCl 0.025 M pH 1.6 + 10 mL MQ water)"}},
  "note": "Where two headings read alike, the source gives them in different places.",
  "data": [
    {"smiles": "CCCCCCCCCC(=O)[O-].[Na+]", "note": "[Formulation C10, Sodium caprate]", "values": [
      {"measurement": "critical aggregate concentration (CAC) of C10 vesicles", "setting": "[1]; pH lower than approximately 8.5, phosphate buffer, triplicates", "value": "around 15 mM"},
      {"measurement": "critical micelle concentration (CMC)", "setting": "[2]; pH 9.1", "value": 81, "unit": "mM"},
      {"measurement": "critical micelle concentration (CMC)", "setting": "[2]; pH 11.8", "value": 102, "unit": "mM"}
    ]},
    {"smiles": "O=C([O-])[O-].[Na+].[Na+]", "note": "[Sodium carbonate]", "values": [
      {"measurement": "adverse events in dogs", "setting": "[3]", "value": "vomiting"}
    ]},
    {"smiles": "CNC[C@H](O)[C@@H](O)[C@H](O)[C@H](O)CO", "note": "[meglumine, Meglumine]", "values": [
      {"measurement": "Amount of meglumine (mg) to pH 8.5", "setting": "[4]; [6]", "value": 15, "unit": "mg"},
      {"measurement": "Amount of meglumine (mg) to pH 9.5", "setting": "[4]; [6]", "value": 25, "unit": "mg"},
      {"measurement": "Amount of meglumine (mg) to pH 9.5", "setting": "[4]; 100 mg C10 / 20 mL acidic medium (10 mL KCl 0.1 M/HCl 0.025 M pH 1.6 + 10 mL MQ water)", "value": 60, "unit": "mg"},
      {"measurement": "Amount of meglumine (mg) to pH 8.5", "setting": "[4]; [7]", "value": 60, "unit": "mg"},
      {"measurement": "Amount of meglumine (mg) to pH 9.5", "setting": "[4]; [7]", "value": 100, "unit": "mg"},
      {"measurement": "Amount of meglumine (mg) to pH 8.5", "setting": "[4]; [8]", "value": 90, "unit": "mg"},
      {"measurement": "Amount of meglumine (mg) to pH 9.5", "setting": "[4]; [8]", "value": 125, "unit": "mg"},
      {"measurement": "impact of meglumine on the CMC of C10 (in words)", "setting": "[1]; 20 mM Tris buffer pH 8.5, with and without 20 mg/ml meglumine", "value": "did not show any impact"},
      {"measurement": "pKa", "setting": "[5]", "value": 9.6}
    ]}
  ]
}
